One test deals with T1, human TRPM8 (Homo sapiens, UniProt Q7Z2W7).
T1 construct: expressed in transfected cells; host or cells: Chinese hamster ovary (CHO) cells, T-REx tetracycline-inducible expression system (Invitrogen); co-transfected with pcDNA3.1 aequorin
Put plainly: Luminescence readout assay for measuring intracellular calcium (aequorin, CHO cells expressing human TRPM8; icilin, L-menthol or cold activation). It is filed as cell-based. The settings on record: CHO cells expressing human TRPM8, icilin activation (1 μM), aequorin luminescence; read-out: hTRPM8 IC50. The gist of the method: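 Activation was by 1 μM icilin, 100 μM L-menthol (test compound 2.5 min ahead) or cold buffer below 10° C (compound 1 min ahead). Calcium rise measured as aequorin luminescence in CHO cells with tetracycline-inducible human TRPM8.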

The test system of test [1] is icilin induced wet-dog shakes. Put plainly: Inhibition of icilin induced shaking (wet-dog shakes) in rats. To be noted: po, rat. It is filed as in vivo, male Sprague Dawley rats. The method, then: Inhibition of Icilin Induced Shaking in Rats
Example compounds at doses ranging from 0.01 to 3 mg/kg (p.o, suspended in 5% Tween80/Oralplus or suspended in 2% HPMC-1% Tween-80 pH2.2 with MSA, 5 mL/kg) can be administered to male Sprague Dawley rats (200-300 g, Harlan, n=6-8/treatment) 2 h before icilin to assess the ability to block the spontaneous wet-dog shake phenomena induced by icilin (i.p., suspended in 100% PEG400 at 0.5 mg/kg, 1 mL/kg or p.o., suspended in 2% HPMC-1% Tween-80 at 3 mg/kg, 2.5 mL/kg). Spontaneous wet-dog shakes may be counted manually by two blinded observers or using LABORAS automation (Metris) for 30 min post-icilin. The synthesized and prophetic example compounds may be measured using these procedures and will be found to reduce the spontaneous wet dog shake phenomena induced by icilin.

pIC50: −log10 of the molar value. Structures can show the parent of a compound that is named as a salt.

Consider 26 compounds from US20150031668A1, “CHROMAN DERIVATIVES AS TRPM8 INHIBITORS” (AMGEN INC., priority 2013, published 2015).

Broadly, the pIC50 is the negative decadic logarithm of the IC50, by convention in mol/L. What is called inhibition in vivo is the percentage by which the read-out fell short of the control. Lower therefore signals a response near the control.

T1 sequence (Q7Z2W7 whole entry): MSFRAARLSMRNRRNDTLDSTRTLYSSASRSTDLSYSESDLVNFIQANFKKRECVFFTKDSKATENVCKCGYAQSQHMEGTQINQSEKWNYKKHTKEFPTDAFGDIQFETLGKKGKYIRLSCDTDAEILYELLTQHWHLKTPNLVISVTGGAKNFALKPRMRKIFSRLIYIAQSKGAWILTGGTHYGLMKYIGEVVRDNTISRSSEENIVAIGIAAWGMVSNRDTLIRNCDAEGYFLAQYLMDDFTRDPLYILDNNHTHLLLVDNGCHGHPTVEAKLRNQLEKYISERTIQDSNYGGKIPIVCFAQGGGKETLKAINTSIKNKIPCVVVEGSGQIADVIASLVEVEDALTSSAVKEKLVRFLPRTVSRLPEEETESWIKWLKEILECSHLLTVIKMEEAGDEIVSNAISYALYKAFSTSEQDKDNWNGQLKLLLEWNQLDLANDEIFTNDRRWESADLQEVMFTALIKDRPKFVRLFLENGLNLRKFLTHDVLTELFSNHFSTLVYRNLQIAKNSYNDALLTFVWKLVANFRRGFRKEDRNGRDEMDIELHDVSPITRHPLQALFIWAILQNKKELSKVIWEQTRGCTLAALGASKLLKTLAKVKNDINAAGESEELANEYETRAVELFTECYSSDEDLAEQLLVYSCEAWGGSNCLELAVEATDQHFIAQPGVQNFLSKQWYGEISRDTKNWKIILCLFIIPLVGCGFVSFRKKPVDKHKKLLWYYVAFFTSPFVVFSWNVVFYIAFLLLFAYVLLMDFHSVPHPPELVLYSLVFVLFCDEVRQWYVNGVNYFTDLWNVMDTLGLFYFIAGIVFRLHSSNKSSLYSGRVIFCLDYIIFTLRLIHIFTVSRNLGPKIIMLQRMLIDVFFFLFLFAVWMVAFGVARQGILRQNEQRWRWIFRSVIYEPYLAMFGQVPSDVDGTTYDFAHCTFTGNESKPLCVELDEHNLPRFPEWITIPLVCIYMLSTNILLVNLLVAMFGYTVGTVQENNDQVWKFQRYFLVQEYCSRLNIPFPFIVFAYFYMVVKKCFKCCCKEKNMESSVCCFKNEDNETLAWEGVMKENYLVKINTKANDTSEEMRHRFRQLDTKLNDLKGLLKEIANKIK

For `O=C(O)c1ccc(C(=O)N[C@]2(c3ccc(OC(F)(F)F)c(F)c3)CCOc3cccnc32)nc1` [Example 75], the pIC50 at human TRPM8 is 7.85. Besides, the inhibition in vivo at 1 mg/kg in test [1] was found to be 99%. For `O=C(N[C@]1(c2ccc(OC(F)(F)F)cc2)CCOc2cccnc21)c1ccc(=O)[nH]c1` (single isomer, unassigned) [Example 58], the pIC50 at human TRPM8 is 7.68. For the same compound, testing at 1 mg/kg in test [1] gave an inhibition in vivo of 97%. For `CCc1cc(C(=O)N[C@]2(c3ccc(OC(F)(F)F)c(F)c3)CCOc3cccnc32)ccc1C(=O)O` [Example 291, (S)-2-ethyl-4-((4-(3-fluoro-4-(trifluoromethoxy)phenyl)-3,4-dihydro-2H-pyrano[3,2-b]pyridin-4-yl)carbamoyl)benzoic acid], the pIC50 at human TRPM8 was 7.82. For the same compound, in test [1], the inhibition in vivo at 1 mg/kg turned out to be 97%. Regarding `Cc1cc(C(=O)N[C@]2(c3ccc(OC(F)(F)F)cc3)CCOc3cccnc32)ccc1C(=O)O` [Example 319, (S)-2-methyl-4-((4-(4-(trifluoro-methoxy)phenyl)-3,4-dihydro-2H-pyrano[3,2-b]pyridin-4-yl)carbamoyl) benzoic acid], at human TRPM8, the pIC50 was 7.82. This compound displayed an inhibition in vivo at 0.3 mg/kg in test [1] (dose 0.3 mg/kg) of 75%.

Take `COc1cc(C(=O)O)ccc1C(=O)N[C@]1(c2ccc(OC(F)(F)F)c(F)c2)CCOc2cccnc21` [Example 314, (S)-4-((4-(3-fluoro-4-(trifluoromethoxy)phenyl)-3,4-dihydro-2H-pyrano[3,2-b]pyridin-4-yl)carbamoyl)-3-methoxybenzoic acid]: the pIC50 on human TRPM8 is 8.40. This compound displayed an inhibition in vivo at 1 mg/kg in test [1] of 99%. On to `O=C(O)c1ccc(C(=O)N[C@]2(c3ccc(C(F)(F)F)cc3)CCOc3cccnc32)nc1` [Example 326, (S)-6-((4-(4-(trifluoro-methyl)phenyl)-3,4-dihydro-2H-pyrano[3,2-b]pyridin-4-yl)carbamoyl) nicotinic acid], for which the pIC50 on human TRPM8 is 7.48. In test [1], this compound displayed an inhibition in vivo at 1 mg/kg of 98%. `Nc1cc(C(=O)N[C@]2(c3ccc(OC(F)(F)F)c(F)c3)CCOc3cccnc32)ccc1C(=O)O` [Example 321, (S)-2-amino-4-((4-(3-fluoro-4-(trifluoro-methoxy)phenyl)-3,4-dihydro-2H-pyrano[3,2-b]pyridin-4-yl)carbamoyl) benzoic acid]: at human TRPM8, the pIC50 is 7.92. In addition, the inhibition in vivo at 1 mg/kg in test [1] worked out at 95%. For `O=C(N[C@]1(c2ccc(C(F)(F)F)cc2)CCOc2cccnc21)c1ccc2oc(=O)[nH]c2c1` [Example 61, (S)-2-oxo-N-(4-(4-(trifluoromethyl)phenyl)-3,4-dihydro-2H-pyrano[3,2-b]pyridin-4-yl)-2,3-dihydrobenzo[d]oxazole-5-carboxamide] the same measures were 8.22 and 80%. In the same order, the values of `O=C(N[C@]1(c2ccc(OC(F)(F)F)c(F)c2)CCOc2cccnc21)c1ccc2[nH]c(=O)oc2c1` (single isomer, unassigned) [Example 21] are 8.15 and 98%. In the same order, the values of `O=C(Nc1ncccn1)N[C@]1(c2ccc(OC(F)(F)F)c(F)c2)CCOc2cccnc21` [Example 83, (S)-1-(4-(3-fluoro-4-(trifluoromethoxy)phenyl)-3,4-dihydro-2H-pyrano[3,2-b]pyridin-4-yl)-3-(pyrimidin-2-yl)urea] are 7.55 and 59%. On to `Cc1cc(C(=O)N[C@]2(c3ccc(OC(F)(F)F)c(F)c3)CCOc3cccnc32)ccc1C(=O)O` [Example 332, (S)-4-((4-(3-fluoro-4-(trifluoromethoxy)phenyl)-3,4-dihydro-2H-pyrano[3,2-b]pyridin-4-yl)carbamoyl)-2-methylbenzoic acid], for which, at human TRPM8, the negative-log IC50 (pIC50) is 7.80. Also, testing at 1 mg/kg in test [1] gave an inhibition in vivo of 99%. In the same order, the values of `Cc1nc(C(=O)N[C@]2(c3ccc(OC(F)(F)F)c(F)c3)CCOc3cccnc32)ccc1C(=O)O` [Example 310, (S)-6-((4-(3-fluoro-4-(trifluoro-methoxy)phenyl)-3,4-dihydro-2H-pyrano[3,2-b]pyridin-4-yl)carbamoyl)-2-methylnicotinic acid] are 8.10 and 98%. For `O=C(O)c1ccc(C(=O)N[C@]2(c3ccc(Cl)c(Cl)c3)CCOc3cccnc32)nc1` [Example 318, (S)-6-((4-(3,4-dichloro-phenyl)-3,4-dihydro-2H-pyrano[3,2-b]pyridin-4-yl)carbamoyl) nicotinic acid], the pIC50 on human TRPM8 is 7.60. In addition, the inhibition in vivo at 1 mg/kg in test [1] was determined as 86%. In the case of `O=C(O)c1ccc(C(=O)N[C@]2(c3ccc(C(F)(F)F)c(F)c3)CCOc3cccnc32)nc1` [Example 313, (S)-6-((4-(3-fluoro-4-(trifluoro-methyl)phenyl)-3,4-dihydro-2H-pyrano[3,2-b]pyridin-4-yl)carbamoyl) nicotinic acid], the pIC50 at human TRPM8 was 7.85. Also, 1 mg/kg produced 99% inhibition in vivo in test [1]. Turning to `O=C(N[C@]1(c2ccc(OC(F)(F)F)c(F)c2)CCOc2cccnc21)c1ccc(=O)[nH]c1` [Example 59, (S)—N-(4-(3-fluoro-4-(trifluoromethoxy)phenyl)-3,4-dihydro-2H-pyrano[3,2-b]pyridin-4-yl)-6-oxo-1,6-dihydropyridine-3-carboxamide], at human TRPM8, the pIC50 is 7.89. In test [1], this compound registered an inhibition in vivo at 1 mg/kg of 99%.

`O=C(N[C@]1(c2ccc(C(F)(F)F)c(F)c2)CCOc2cccnc21)c1ccc(=O)[nH]c1` [Example 170, (S)-N-(4-(3-fluoro-4-(trifluoromethyl)phenyl)-3,4-dihydro-2H-pyrano[3,2-b]pyridin-4-yl)-6-oxo-1,6-dihydropyridine-3-carboxamide]: the pIC50 at human TRPM8 is 7.68. For the same compound, 1 mg/kg produced 90% inhibition in vivo in test [1]. Regarding `O=C(N[C@]1(c2ccc(OC(F)(F)F)c(F)c2)CCOc2cccnc21)c1ccc(-c2noc(=O)[nH]2)cn1` [Example 283, (S)—N-(4-(3-fluoro-4-(trifluoromethoxy)phenyl)-3,4-dihydro-2H-pyrano[3,2-b]pyridin-4-yl)-5-(5-oxo-4,5-dihydro-1,2,4-oxadiazol-3-yl)picolinamide], the pIC50 on human TRPM8 was 7.36. Besides, in test [1], 1 mg/kg produced 78% inhibition in vivo. For `O=C(Nc1cncnc1)N[C@]1(c2ccc(OC(F)(F)F)c(F)c2)CCOc2cccnc21` [Example 85, (S)-1-(4-(3-fluoro-4-(trifluoromethoxy)phenyl)-3,4-dihydro-2H-pyrano[3,2-b]pyridin-4-yl)-3-(pyrimidin-5-yl)urea] the same measures were 7.92 and 72%.

With `CC(C)(C)OC(=O)N[C@]1(c2ccc(OC(F)(F)F)c(F)c2)CCOc2cccnc21` [Example 78, (S)-tert-butyl (4-(3-fluoro-4-(trifluoromethoxy)phenyl)-3,4-dihydro-2H-pyrano[3,2-b]pyridin-4-yl)carbamate], the pIC50 on human TRPM8 is 7.24. Same read-out and setting: the value for `O=C(N[C@]1(c2ccc(OC(F)(F)F)cc2)CCOc2cccnc21)c1ccc2cc[nH]c(=O)c2c1` [Example 271, (S)-1-oxo-N-(4-(4-(trifluoromethoxy)phenyl)-3,4-dihydro-2H-pyrano[3,2-b]pyridin-4-yl)-1,2-dihydroisoquinoline-7-carboxamide formate] was 7.80; that for `O=C(NC1(c2ccc(C(F)(F)F)nc2)CCOc2cccnc21)c1ccccc1` (centres unmarked) [Example 13, N-(4-(6-(trifluoromethyl)pyridin-3-yl)-3,4-dihydro-2H-pyrano[3,2-b]pyridin-4-yl)benzamide] was 6.05. Consider `O=C(Nc1ccc(C(=O)O)cc1)N[C@]1(c2ccc(OC(F)(F)F)c(F)c2)CCOc2cccnc21` [Example 108, (S)-4-(3-(4-(3-fluoro-4-(trifluoromethoxy)phenyl)-3,4-dihydro-2H-pyrano[3,2-b]pyridin-4-yl)ureido)benzoic acid], for which the pIC50 on human TRPM8 is 6.41. With `O=C(NC1(c2ccc(OC(F)(F)F)cc2)CCOc2cccnc21)c1ccc(F)cc1` (centres unmarked) [Example 8, 4-fluoro-N-(4-(4-(trifluoromethoxy)phenyl)-3,4-dihydro-2H-pyrano[3,2-b]pyridin-4-yl)benzamide], the pIC50 on human TRPM8 is 7.12. Regarding `N#Cc1cncc(-c2ccc([C@@]3(NC(=O)c4ccc(F)cc4)CCOc4cccnc43)cc2)c1` [Example 141, (S)-N-(4-(4-(5-cyanopyridin-3-yl)phenyl)-3,4-dihydro-2H-pyrano[3,2-b]pyridin-4-yl)-4-fluorobenzamide], the pIC50 at human TRPM8 is 6.59. Still for that read-out and setting: the value for `CC(O)c1ccc(C(=O)N[C@]2(c3ccc(OC(F)(F)F)c(F)c3)CCOc3cccnc32)cc1` (mixture of isomers) [Example 157, N—((S)-4-(3-fluoro-4-(trifluoromethoxy)phenyl)-3,4-dihydro-2H-pyrano[3,2-b]pyridin-4-yl)-4-((R)-1-hydroxyethyl)benzamide and N—((S)-4-(3-fluoro-4-(trifluoromethoxy)phenyl)-3,4-dihydro-2H-pyrano[3,2-b]pyridin-4-yl)-4-((S)-1-hydroxyethyl)benzamide (1:1)] was 7.92; that for `O=C(N[C@]1(c2ccc(OC(F)(F)F)cc2)CCOc2cccnc21)c1cc2ccccn2n1` [Example 219, (S)-N-(4-(4-(trifluoromethoxy)phenyl)-3,4-dihydro-2H-pyrano[3,2-b]pyridin-4-yl) pyrazolo[1,5-a] pyridine-2-carboxainide formate] was 7.96.
